The values that follow come from publication PMC9664070, “The anticonvulsant phytocannabinoids CBGVA and CBDVA inhibit recombinant T-type channels” (Frontiers in Pharmacology, 2022).

As usually defined, the IC50 is the concentration at which inhibition is half-maximal.

Series [1] has as its target T1, Cav3.1 (Homo sapiens, UniProt O43497).
T1 construct: expressed in transfected cells; host or cells: HEK293 Flp-In T-REx
Briefly: FLIPR calcium 5 assay, inhibition of 10 mM Ca-induced fluorescence. To be noted: for % Inhibition of Fluorescence Cav3.1: 10 µM compound, 10 mM Ca-induced fluorescence, HEK293 cells, mean ± SEM; for IC50: FLIPR concentration-response, HEK293 Cav3.1 cells, read-out: IC50, inhibition of change in fluorescence, Cav3.1. It counts as cell-based. On the procedure:
(§1) Calcium 5 dye (Molecular Devices, United States ) was used to investigate compound activities at T-type calcium channels using Flexstation III. HEK293 cells overexpressing Cav3.1, Cav 3.2, and Cav 3.3 cells were resuspended in Leibovitz’s L-15 media containing 1% FBS, 1% P/S and 15 mM glucose. 90 µl of the resuspended cells (120,000 cells/well) were plated in a black-walled, 96-well microplate (Corning, NY, United States ) and incubated overnight in humidified air at 37°C. Channel expression was induced with tetracycline (2 μg/ml, Sigma-Aldrich) at plating. On the day of the assay, 90 µl of HBSS containing 5% Calcium dye (bulk kit) and 2.5 mM probenecid (Invitrogen, United States ) was added to each well and incubated for 1 h at 37°C. Change in fluorescence was measured in a FlexStation III plate reader every 2 s (ʎexcitation = 485 nm, ʎemission = 525 nm) for the duration of the experiment at 37°C. After 2 min baseline recording, drugs (20 µL) were added and read for 5 min, followed by 10 mM CaCl2 (20 µl) and read for a further 3 min.
(§2) Unless otherwise stated, five independent experiments were performed for each condition, with each experiment conducted in duplicate. For the calcium assay, change in fluorescence by 10 mM Ca in the presence of drugs was normalised to change in fluorescence caused by 10 mM Ca in the presence of vehicle only to allow for comparison. In the Alphascreen assay, results were normalised to EC80 of ML-186 after subtraction of basal ERK phosphorylation (presence of a vehicle and 0.2% DMSO) to allow for easy comparison between phytocannabinoid activities. We fitted all concentration-response curves to a 4-parameter sigmoidal inhibitory response curve in GraphPad Prism (Version 6 GraphPad Software Inc., CA, United States) to derive IC50 and Emax values. All statistical analyses were conducted with GraphPad Prism. Two-tailed, unpaired t-tests were used to compare two data points and one-way ANOVA for more than two data points with Tukey post-hoc analysis. p-values < 0.05 were considered statistically significant.
(§3) Our investigation of T-type channels began with a single-point screen, as described by [Bladen et al. (2021)]. We screened the inhibitory effect of 10 µM phytocannabinoids on the change in fluorescence elicited by the addition of 10 mM Ca^2+ in cells expressing Cav3.1, Cav3.2 or Cav3.3 channels ([Xie et al., 2007]; [Bladen et al., 2021]).

In another series the target is T2, Cav3.3 (Homo sapiens, UniProt Q9P0X4).
T2 construct: expressed in transfected cells; host or cells: HEK293 Flp-In T-REx
The description is as above. To be noted: 10 µM compound, HEK293 cells, mean ± SEM. It counts as cell-based. On the procedure:
as §1, §2, §3

In series [2] the test system is hyperthermia-induced seizures. Also on record: method as in earlier work. To be noted: Scn1a+/- mice, ref Anderson et al., 2019, 2021a, 2021b; cited from earlier work.
Series [3] addresses T3, Cav3.2 (Homo sapiens, UniProt O95180).
T3 construct: expressed in transfected cells; host or cells: HEK293 Flp-In T-REx
Kind of series: FLIPR calcium 5 assay, inhibition of 10 mM Ca-induced fluorescence. The class given is cell-based. To be noted: for % Inhibition of Fluorescence Cav3.2: 10 µM compound, 10 mM Ca-induced fluorescence, HEK293 cells, mean ± SEM. The method, then:
as §1, §2, §3

Series [4] is described as follows: Plasma and brain exposure at anticonvulsant doses in mice (literature). The class given is in vivo. To be noted: from peak plasma concentration and brain-plasma ratio.
For series [5] the following is noted: ref Anderson et al., cited from earlier work.
The next series addresses T4, GPR55 (Homo sapiens, UniProt Q9Y2T6).
T4 construct: expressed in transfected cells; host or cells: HEK 293
Briefly: Alphascreen ERK phosphorylation assay, antagonism of ML-186-induced ERK phosphorylation. Particulars: in the presence of EC80 of ML-186 (0.45 µM), HEK 293 GPR55 cells. The class given is cell-based. On the procedure:
as §2
On the technique in general: In Alpha technology, singlet oxygen from a donor bead excites a nearby acceptor bead.

The target of series [6] is T1, Cav3.1. Briefly: Whole-cell voltage-clamp electrophysiology in HEK293 Flp-In T-REx cells. The class given is cell-based. On the procedure: All whole-cell voltage-clamp recordings from HEK293 Flp-In T-REx cells stably transfected with human Cav3.1, Cav 3.2 and Cav 3.3 were performed at room temperature. At least 24 h prior to experiments, cells were detached from flasks using trypsin/EDTA and plated into 10 cm sterile tissue culture dishes containing 10 ml of supplemented DMEM and 10–15 glass coverslips (12 mm diameter, ProScitech, QLD, Australia). Culture dishes were then kept overnight in same conditions as flasks to allow cells to adhere to coverslips. They were then transferred to a 30°C/5% CO2 incubator to inhibit cell proliferation until ready to be used for electrophysiology experiments. At this stage, channel expression was induced with tetracycline (2 μg/ml, Sigma-Aldrich) 8–24 h prior to recording cells.
External recording solutions contained (in mM): 114 CsCl, 5 BaCl2, 1 MgCl2, 10 HEPES, 10 glucose, adjusted to pH 7.4 with CsOH. The internal patch pipette solution contained (in mM): 126.5 CsMeSO4, 2 MgCl2, 11 EGTA, 10 HEPES adjusted to pH 7.3 with CsOH. Internal solution was supplemented with 0.6 mM GTP and 2 mM ATP and mixed thoroughly just before use. Liquid junction potentials for the above solutions were calculated before experiments using pClamp 10 software and corrected during experiments. Compounds were prepared daily from 30 mM DMSO stocks and diluted into an external solution just before use. Compounds were then applied rapidly and locally to the cells using a custom-built gravity-driven micro-perfusion system ([Feng et al., 2003]). […] Currents were elicited from a holding potential of -100 mV and were measured by conventional whole-cell patch clamp techniques using an Axopatch 200B amplifier in combination with Clampex 9.2 software. (Molecular Devices, Sunnyvale, CA). After establishing whole cell configuration, cellular capacitance was minimised using the amplifier’s built-in analogue compensation. Series resistance was kept to <10 MΩ and was compensated to at least 85% in all experiments. All data were digitised at 10 kHz with a Digidata 1,320 interface (Molecular Devices) and filtered at 1 kHz (8-pole Bessel filter). Raw and online leak-subtracted data were both collected simultaneously, P/N4 leak subtraction was performed using opposite polarity and after the protocol sweep.
For tonic inhibition of T-type currents, membrane potential was stepped from −100 mV to −30 mV for 200 ms and then allowed to recover for 12 s (1 sweep). A minimum of 10 sweeps were collected under vehicle control external perfusion to allow for control peak current to equilibrate. The drug was then continuously perfused, and sweeps were recorded until no further inhibition was seen (minimum of 3 sweeps with the same amplitude). In current-voltage relation studies, the membrane potential was held at −100 mV and cells were depolarised from −70 to 50 mV in 10 mV increments. For steady-state inactivation studies, a 3.6 s conditioning pre-pulse of various magnitudes (initial holding at −110 mV) was followed by a depolarising pulse to −30 mV. Individual sweeps were separated by 12 s to permit recovery from inactivation between conditioning pulses. The duration of the test pulse was typically 20 ms, and the current amplitude obtained from each test pulse was normalised to that observed at the holding potential of −100 mV.
The effect of CBGVA and CBDVA (5 µM each) on slow inactivation was tested using a 2-pulse voltage protocol as described in Bladen et al., (2021). Briefly, cells expressing Cav3.1 were initially depolarised with a 200 ms test pulse from -120 mV to −30 mV to generate peak current (P1) and followed by a 10 s pre-conditioning pulse to −80 mV to reverse fast inactivation. Cells were further depolarised with another 200 ms test pulse from −120 to −30 mV (P2) (Figure 2 inset).
THC and CBD cause substantial frequency-dependent inhibition of Cav3.2 and Nav1.8 channels, respectively ([Ross et al., 2008]; [Bladen et al., 2021]; [Zhang and Bean, 2021]). […]

Series [7] has as its system Cav3.2. More on the design: method as in Ross et al., 2008. To be noted: ref Ross et al., 2008; read-out: IC50, inhibition of peak Cav3.2 currents; cited from earlier work.
For series [8], the system named is Cav3.1. Also on record: method as in Ross et al., 2008. To be noted: ref Ross et al., 2008; read-out: IC50, inhibition of peak Cav3.1 currents; cited from earlier work.

Values joined by “and” are separate entries in the source; they are usually repeats but may differ in a detail not shown here. Identical values can stand only once. Some results are limits rather than exact numbers.

T1 sequence (O43497 whole entry): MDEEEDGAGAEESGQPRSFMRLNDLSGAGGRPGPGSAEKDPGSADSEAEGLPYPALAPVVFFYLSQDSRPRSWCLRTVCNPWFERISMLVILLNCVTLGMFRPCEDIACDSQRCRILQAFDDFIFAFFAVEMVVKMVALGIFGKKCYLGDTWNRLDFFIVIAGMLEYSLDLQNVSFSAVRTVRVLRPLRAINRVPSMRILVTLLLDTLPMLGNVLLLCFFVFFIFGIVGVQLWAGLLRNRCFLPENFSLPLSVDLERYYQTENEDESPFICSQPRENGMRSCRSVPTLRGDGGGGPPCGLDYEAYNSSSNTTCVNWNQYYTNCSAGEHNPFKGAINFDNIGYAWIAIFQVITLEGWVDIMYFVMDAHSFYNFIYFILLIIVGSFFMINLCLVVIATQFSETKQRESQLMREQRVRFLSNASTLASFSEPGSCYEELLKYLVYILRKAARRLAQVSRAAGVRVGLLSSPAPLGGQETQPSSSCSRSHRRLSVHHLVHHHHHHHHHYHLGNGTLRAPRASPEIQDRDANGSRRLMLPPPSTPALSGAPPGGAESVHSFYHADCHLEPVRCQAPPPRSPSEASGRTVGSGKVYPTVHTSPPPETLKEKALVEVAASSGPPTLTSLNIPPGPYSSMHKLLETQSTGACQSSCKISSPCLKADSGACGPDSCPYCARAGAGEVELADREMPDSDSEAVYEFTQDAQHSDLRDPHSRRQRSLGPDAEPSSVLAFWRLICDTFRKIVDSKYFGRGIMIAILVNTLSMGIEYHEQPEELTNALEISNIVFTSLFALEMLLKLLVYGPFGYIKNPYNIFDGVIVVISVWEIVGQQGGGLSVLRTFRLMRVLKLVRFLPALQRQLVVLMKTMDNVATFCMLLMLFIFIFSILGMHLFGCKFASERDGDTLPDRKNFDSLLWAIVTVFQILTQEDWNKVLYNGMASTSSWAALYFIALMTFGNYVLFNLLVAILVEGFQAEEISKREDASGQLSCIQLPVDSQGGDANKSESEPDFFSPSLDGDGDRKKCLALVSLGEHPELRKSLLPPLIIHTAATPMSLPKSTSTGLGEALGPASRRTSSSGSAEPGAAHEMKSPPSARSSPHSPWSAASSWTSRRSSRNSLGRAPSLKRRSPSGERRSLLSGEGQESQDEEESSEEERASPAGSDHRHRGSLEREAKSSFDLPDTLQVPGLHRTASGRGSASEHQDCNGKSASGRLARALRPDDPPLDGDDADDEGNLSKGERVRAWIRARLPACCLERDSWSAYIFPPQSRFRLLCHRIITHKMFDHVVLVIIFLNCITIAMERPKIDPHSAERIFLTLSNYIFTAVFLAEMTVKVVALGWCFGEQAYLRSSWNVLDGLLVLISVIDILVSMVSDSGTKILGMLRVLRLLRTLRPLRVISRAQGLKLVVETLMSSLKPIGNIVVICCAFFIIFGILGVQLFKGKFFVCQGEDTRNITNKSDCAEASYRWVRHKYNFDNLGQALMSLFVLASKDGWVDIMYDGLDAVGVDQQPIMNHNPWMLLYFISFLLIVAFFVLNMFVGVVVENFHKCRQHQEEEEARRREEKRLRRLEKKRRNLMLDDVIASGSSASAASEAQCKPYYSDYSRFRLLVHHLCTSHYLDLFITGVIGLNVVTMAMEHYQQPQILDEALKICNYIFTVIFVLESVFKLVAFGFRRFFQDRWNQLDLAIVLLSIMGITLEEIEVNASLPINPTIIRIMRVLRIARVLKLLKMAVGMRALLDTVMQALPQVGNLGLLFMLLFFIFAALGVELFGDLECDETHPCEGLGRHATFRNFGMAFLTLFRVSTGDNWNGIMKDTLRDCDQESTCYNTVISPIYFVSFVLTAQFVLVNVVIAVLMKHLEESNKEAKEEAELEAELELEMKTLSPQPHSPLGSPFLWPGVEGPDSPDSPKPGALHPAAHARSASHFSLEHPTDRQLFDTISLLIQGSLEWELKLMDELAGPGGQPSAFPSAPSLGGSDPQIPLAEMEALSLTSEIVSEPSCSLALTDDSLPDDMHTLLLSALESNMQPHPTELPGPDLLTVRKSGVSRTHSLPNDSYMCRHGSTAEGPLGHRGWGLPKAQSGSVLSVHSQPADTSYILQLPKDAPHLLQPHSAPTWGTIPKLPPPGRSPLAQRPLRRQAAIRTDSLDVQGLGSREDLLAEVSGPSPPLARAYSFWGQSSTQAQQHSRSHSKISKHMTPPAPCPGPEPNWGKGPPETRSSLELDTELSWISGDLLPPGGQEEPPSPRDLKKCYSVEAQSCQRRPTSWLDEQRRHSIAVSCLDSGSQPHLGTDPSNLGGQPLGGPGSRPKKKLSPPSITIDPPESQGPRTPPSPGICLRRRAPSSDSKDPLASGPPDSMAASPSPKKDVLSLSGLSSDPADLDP
T2 sequence (Q9P0X4 whole entry): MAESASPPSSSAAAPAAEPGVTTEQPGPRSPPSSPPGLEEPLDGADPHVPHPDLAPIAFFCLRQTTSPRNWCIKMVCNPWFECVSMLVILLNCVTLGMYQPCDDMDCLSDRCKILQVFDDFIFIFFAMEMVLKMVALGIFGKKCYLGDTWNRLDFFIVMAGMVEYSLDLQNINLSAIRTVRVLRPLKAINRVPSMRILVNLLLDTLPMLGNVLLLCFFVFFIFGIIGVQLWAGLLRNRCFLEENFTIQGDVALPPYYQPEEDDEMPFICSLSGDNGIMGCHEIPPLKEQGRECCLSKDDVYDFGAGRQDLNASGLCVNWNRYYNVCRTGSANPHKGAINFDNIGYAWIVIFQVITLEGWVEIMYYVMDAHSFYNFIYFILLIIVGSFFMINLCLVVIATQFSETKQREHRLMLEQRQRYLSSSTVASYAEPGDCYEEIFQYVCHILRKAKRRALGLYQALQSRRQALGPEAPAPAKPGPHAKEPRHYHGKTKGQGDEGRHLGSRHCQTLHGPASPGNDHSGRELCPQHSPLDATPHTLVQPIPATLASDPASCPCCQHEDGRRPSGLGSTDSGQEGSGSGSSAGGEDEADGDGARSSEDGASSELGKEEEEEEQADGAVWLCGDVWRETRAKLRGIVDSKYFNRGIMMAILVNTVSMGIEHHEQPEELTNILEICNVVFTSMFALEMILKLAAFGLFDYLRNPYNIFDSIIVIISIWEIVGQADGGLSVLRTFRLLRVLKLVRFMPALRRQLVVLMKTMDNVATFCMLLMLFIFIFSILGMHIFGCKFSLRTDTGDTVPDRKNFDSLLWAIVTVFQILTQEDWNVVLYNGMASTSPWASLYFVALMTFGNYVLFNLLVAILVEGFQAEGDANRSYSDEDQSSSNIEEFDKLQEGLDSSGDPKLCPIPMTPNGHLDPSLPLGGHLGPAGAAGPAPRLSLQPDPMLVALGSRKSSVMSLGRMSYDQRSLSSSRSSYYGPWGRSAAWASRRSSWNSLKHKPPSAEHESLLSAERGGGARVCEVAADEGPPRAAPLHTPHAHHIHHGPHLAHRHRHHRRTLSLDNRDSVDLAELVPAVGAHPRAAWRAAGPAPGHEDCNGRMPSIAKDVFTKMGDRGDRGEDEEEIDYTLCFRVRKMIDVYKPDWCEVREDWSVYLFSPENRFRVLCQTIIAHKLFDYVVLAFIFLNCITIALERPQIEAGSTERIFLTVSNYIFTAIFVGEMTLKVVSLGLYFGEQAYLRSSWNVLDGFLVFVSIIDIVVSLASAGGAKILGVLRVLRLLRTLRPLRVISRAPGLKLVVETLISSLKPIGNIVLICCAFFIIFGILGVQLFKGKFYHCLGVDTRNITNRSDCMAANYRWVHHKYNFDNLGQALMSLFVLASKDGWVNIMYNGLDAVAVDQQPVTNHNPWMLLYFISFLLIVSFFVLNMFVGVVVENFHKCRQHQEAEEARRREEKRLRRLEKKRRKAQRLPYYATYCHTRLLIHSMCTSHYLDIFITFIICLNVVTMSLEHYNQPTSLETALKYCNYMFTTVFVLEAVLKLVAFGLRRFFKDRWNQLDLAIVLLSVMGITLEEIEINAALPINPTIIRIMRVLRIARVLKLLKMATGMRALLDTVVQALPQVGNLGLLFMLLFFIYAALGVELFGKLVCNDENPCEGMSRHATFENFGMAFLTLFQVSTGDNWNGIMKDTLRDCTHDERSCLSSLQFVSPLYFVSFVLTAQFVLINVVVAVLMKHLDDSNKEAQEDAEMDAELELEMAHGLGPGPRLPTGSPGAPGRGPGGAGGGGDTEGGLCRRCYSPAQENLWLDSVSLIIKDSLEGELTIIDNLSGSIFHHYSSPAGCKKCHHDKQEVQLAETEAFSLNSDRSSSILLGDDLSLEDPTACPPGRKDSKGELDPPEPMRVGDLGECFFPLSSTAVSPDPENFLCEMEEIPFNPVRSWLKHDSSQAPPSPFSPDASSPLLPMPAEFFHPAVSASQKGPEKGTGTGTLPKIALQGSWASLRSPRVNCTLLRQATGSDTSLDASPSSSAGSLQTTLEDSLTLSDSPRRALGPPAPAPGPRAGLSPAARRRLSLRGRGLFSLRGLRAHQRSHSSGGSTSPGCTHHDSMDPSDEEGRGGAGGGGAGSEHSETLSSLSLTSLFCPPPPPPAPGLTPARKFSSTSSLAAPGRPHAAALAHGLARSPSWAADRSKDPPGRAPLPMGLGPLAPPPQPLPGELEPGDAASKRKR
T4 sequence (Q9Y2T6 whole entry, species assumed): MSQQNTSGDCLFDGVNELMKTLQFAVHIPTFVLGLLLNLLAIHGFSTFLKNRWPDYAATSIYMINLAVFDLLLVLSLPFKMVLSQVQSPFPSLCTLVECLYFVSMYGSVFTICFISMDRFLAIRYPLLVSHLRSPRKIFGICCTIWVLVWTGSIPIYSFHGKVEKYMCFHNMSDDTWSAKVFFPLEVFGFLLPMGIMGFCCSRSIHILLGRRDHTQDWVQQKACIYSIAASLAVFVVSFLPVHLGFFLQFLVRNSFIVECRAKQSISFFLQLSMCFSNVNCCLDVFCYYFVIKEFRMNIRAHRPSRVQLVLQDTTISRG

Turning to `CCCc1cc(O)c(C/C=C(\C)CCC=C(C)C)c(O)c1` [CBGV], the “% Inhibition of Fluorescence Cav3.1” value at Cav3.1 [1] was < 80% and 51 ± 14%. Further, the “% Inhibition of Fluorescence Cav3.3” value on Cav3.3 is listed as 6 ± 3%.
On to `CC(C)[C@H]1c2ccc(F)cc2CC[C@@]1(CCN(C)CCCc1nc2ccccc2[nH]1)OC(=O)C1CC1` [NNC550396, reference compound], for which, on Cav3.1 [1], the “% Inhibition of Fluorescence Cav3.1” value is reported as 82 ± 8% and the half-maximal inhibitory concentration (IC50) worked out at 0.73 µM. For the same compound, the “% Inhibition of Fluorescence Cav3.3” value at Cav3.3 came to 89 ± 2%.
Regarding `CCCCCc1cc(O)c(C/C=C(\C)CCC=C(C)C)c(O)c1C(=O)O` [CBGA, cannabigerolic acid], the “effect against hyperthermia-induced seizures” value in [2] is listed as “anticonvulsant”.
With `CCCCCc1cc2c(c(O)c1C(=O)O)C=CC(C)(CCC=C(C)C)O2` (stereo not shown) [CBCA, cannabichromenic acid], in [2], the “effect against hyperthermia-induced seizures” value was “anticonvulsant”. For the same compound, the “% Inhibition of Fluorescence Cav3.1” value at Cav3.1 [1] was 59 ± 9%. Moreover, the “% Inhibition of Fluorescence Cav3.3” value on Cav3.3 is reported as 11 ± 10%.
Turning to `CCCc1cc(O)c2c(c1)OC(C)(CCC=C(C)C)C=C2` (stereo not shown) [CBCV], the “% Inhibition of Fluorescence Cav3.2” value at Cav3.2 [3] was -37 ± 21%. On Cav3.2 [3] (10 µM, FLIPR), the “effect on influx of Ca2+ ions in cells expressing Cav3.2” value is given as “appeared to increase the influx of Ca^2+ ions”. The “% Inhibition of Fluorescence Cav3.3” value on Cav3.3 came to 1 ± 1%.
As to `CCCc1cc(O)c(C/C=C(\C)CCC=C(C)C)c(O)c1C(=O)O` [CBGVA, cannabigerovarinic acid], the “effect against hyperthermia-induced seizures” value in series [2] is “anticonvulsant”. In addition, in series [4], the expected brain concentration is on record as 48 µM. The half-inhibitory concentration (IC50) came to 2000 nM at Cav3.2 [3] (FLIPR concentration-response, HEK293 Cav3.2 cells, read-out: IC50, inhibition of change in fluorescence, Cav3.2); 6 µM on Cav3.1 [1]; 8 µM at GPR55; 3000 nM at Cav3.1 [6] (patch clamp, step −100 mV to −30 mV every 12 s, read-out: IC50, tonic inhibition of Cav3.1 current amplitude). In addition, at Cav3.3, the “% Inhibition of Fluorescence Cav3.3” value is recorded as 35 ± 11%. Moreover, the Peak plasma concentration result in series [5] (anticonvulsant doses in mice, 2021b) is “approximately 1,200 µM”. For the same compound, the brain-plasma ratio in series [5] (2019) is on record as 4%. Further, at Cav3.1 [6] (5 µM compound), the “V0.5 of voltage dependence of Cav3.1 activation” value is recorded as −49.1 ± 0.5 mV. In addition, the “half-inactivation (V0.5), steady-state inactivation of Cav3.1” value on Cav3.1 [6] (5 µM compound) was −82.1 ± 0.8 mV. In addition, the “Cav3.1 relative current at 50th action potential, % of first” value on Cav3.1 [6] (5 µM, 0.4 Hz stimulation) came to 73 ± 3%; at Cav3.1 [6] (5 µM, 0.8 Hz stimulation), 88 ± 1%; at Cav3.1 [6] (5 µM, 2.0 Hz stimulation), 77 ± 1%. At Cav3.1 [6] (5 µM, 2-pulse voltage protocol, after 10 s pre-conditioning pulse to −80 mV), the “inhibition of Cav3.1 peak current, second test pulse (P2), slow inactivated state” value was found to be 72 ± 3%. Moreover, at Cav3.1 [6] (5 µM, 2-pulse voltage protocol, before slow inactivation), the “inhibition of Cav3.1 peak current, first test pulse (P1)” value worked out at 61 ± 3%.
Turning to `C=C(C)[C@@H]1CCC(C)=C[C@H]1c1c(O)cc(CCCCC)cc1O` [CBD, cannabidiol], the IC50 in the series on Cav3.2 [7] and in the series on Cav3.1 [8] was approximately 1000 nM throughout.
For the compound `CCCc1cc2c(c(O)c1C(=O)O)C=CC(C)(CCC=C(C)C)O2` (stereo not shown) [CBCVA, cannabichrovarinic acid], the “effect against hyperthermia-induced seizures” value in [2] was “anticonvulsant”. On Cav3.2 [3], the “% Inhibition of Fluorescence Cav3.2” value was 62 ± 8%. Besides, the “% Inhibition of Fluorescence Cav3.1” value on Cav3.1 [1] came out at 51 ± 8%. Also, the “% Inhibition of Fluorescence Cav3.3” value at Cav3.3 was 34 ± 12%.
